What was measured:
Type in all cases: cell-based
[1] = target: T1, human prostanoid FP receptor (Homo sapiens, UniProt P43088); experiment: FLIPR Ca2+ signaling antagonist assay, FP receptor stable cell line; details: HEK-293 EBNA stable cell line; standard agonist 17-phenyl-PGF2α; NA = inactive (no antagonism or Kb 10,000 nM); PAg, Ag not defined
T1 construct: expressed in transfected cells
Method in brief: (§1)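 Peak Fluo-4 fluorescence (ex 470–495, em 515–575 nm) was read for 3.5 min on FLIPR after agonist injection and expressed relative to 10^−6 M standard agonist. Cells were HEK-293 EBNA transfectants. Test compound was added 4.5 min beforehand at 0.1–30 μM, or 0.067–1 μM for TP.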

[2] = target: T2, human prostanoid DP1 receptor (Homo sapiens, UniProt Q13258); experiment: FLIPR Ca2+ signaling antagonist assay, DP1 receptor stable cell line; details: HEK-293 EBNA stable cell line; standard agonist BW 245C; NA = inactive (no antagonism or Kb 10,000 nM); PAg, Ag not defined
T2 construct: expressed in transfected cells
T2 sequence (Q13258 1-359): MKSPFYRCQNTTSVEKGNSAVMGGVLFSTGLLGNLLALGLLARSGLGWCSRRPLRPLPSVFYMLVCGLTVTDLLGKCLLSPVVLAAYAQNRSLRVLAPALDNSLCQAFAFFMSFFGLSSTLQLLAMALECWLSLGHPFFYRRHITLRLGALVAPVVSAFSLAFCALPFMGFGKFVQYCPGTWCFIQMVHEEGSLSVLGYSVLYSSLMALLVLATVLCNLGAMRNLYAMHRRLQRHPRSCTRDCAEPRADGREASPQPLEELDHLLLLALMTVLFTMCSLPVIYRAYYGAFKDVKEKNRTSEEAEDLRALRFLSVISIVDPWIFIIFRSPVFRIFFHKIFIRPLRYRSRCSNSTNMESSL
Method in brief: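 Functional antagonism measured by Ca2+ flux at 37 °C. Agonist ranges were 10^−11 to 10^−5 M, or 10^−12 to 10^−6 M for TP with U-46619; PGE2 for EP1/EP3, BW 245C for DP1. Compound spanned 0.1–30 μM except TP, 0.067–1 μM.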

[3] = target: T3, human prostanoid EP1 receptor (Homo sapiens, UniProt P34995); experiment: FLIPR Ca2+ signaling antagonist assay, EP1 receptor stable cell line; details: HEK-293 EBNA stable cell line; standard agonist PGE2; NA = inactive (no antagonism or Kb 10,000 nM); PAg, Ag not defined
T3 construct: expressed in transfected cells
T3 sequence (P34995 1-402): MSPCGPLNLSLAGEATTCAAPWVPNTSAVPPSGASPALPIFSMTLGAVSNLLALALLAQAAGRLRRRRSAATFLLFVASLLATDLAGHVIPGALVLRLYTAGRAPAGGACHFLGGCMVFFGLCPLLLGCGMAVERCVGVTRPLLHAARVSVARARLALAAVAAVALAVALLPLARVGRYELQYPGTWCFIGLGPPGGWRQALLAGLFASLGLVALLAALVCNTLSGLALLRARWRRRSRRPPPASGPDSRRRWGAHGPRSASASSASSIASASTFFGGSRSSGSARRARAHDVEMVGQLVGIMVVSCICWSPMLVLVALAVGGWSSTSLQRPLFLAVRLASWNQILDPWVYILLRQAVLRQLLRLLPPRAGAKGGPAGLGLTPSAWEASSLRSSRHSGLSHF
Method in brief: (§2)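 HEK-293 EBNA cells stably expressing receptor (EP3 co-expressed with chimeric Gqi; EP1, IP, TP without exogenous G protein), Fluo-4 loaded, read on FLIPR at 37° C. Antagonist added 4.5 min before standard agonist (EP1/EP3 PGE2, IP cicaprost 10^−11–10^−5 M; TP U-46619 10^−12–10^−6 M); antagonist 0.1–30 μM, TP 0.067–1 μM; peak fluorescence relative to 10^−6 M agonist.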

[4] = target: T4, human prostanoid EP2 receptor (Homo sapiens, UniProt P43116); experiment: FLIPR Ca2+ signaling antagonist assay, EP2 receptor stable cell line; details: HEK-293 EBNA stable cell line; standard agonist PGE2; NA = inactive (no antagonism or Kb 10,000 nM); PAg, Ag not defined
T4 construct: expressed in transfected cells
Description: The above compounds were tested for PG antagonist activity as follows using human recombinant prostanoid receptor (DP1, EP1-4, FP, IP and TP) stable cell lines:
In order to measure the response of Gs and Gi coupled prostanoid receptors as a Ca^2+ signal, chimeric G protein cDNAs were used. Stable cell lines over-expressing human prostanoid DP1, EP1-4, FP, IP, and TP receptors were established as follows:
Briefly, human prostanoid DP1, EP2, and EP4 receptor cDNAs were co-transfected with chimeric Gqs cDNA containing a haemagglutanin (HA) epitope; human prostanoid EP3 receptors were co-transfected with chimeric Gqi-HA; human EP1, FP, IP, and TP receptor cDNAs were expressed with no exogenous G-proteins. Gqs and Gqi chimeric cDNAs (Molecular Devices, Sunnyvale, Calif., U.S.A.), as well as cDNAs of prostanoid receptors, were cloned into a pCEP4 vector with a hygromycin B selection marker. Transfection into HEK-293 EBNA (Epstein-Barr virus nuclear antigen) cells was achieved by the FuGENE 6 transfection Reagent (Roche Applied Science, Indianapolis, Ind., USA). Stable transfectants were selected according to hygromycin resistance. Because Gqs and Gqi contained an HA epitope, G-protein expression was detected by Western blotting analysis using anti-mouse HA monoclonal antibody and horseradish peroxidase (HRP)-conjugated secondary antibody, while functional expression of prostanoid receptors was detected by FLIPR screening (Matias et al., 2004). These stable cell lines were validated using previously published antagonists at 10 μM against serial dilutions of standard agonists by FLIPR functional assays for Ca^2+ Signaling (as described below).
Ca^2+ signaling studies were performed using a FLIPR TETRA system (Molecular Devices, Sunnyvale, Calif., USA) in the 384-format. This is a high-throughput instrument for cell-based assays to monitor Ca^2+ signaling associated with GPCRs and ion channels. Cells were seeded at a density of 5×10^4 cells/well in BioCoat poly-D-lysine coated, black wall, clear bottom 384-well plates (BD Biosciences, Franklin lakes, NJ, USA) and allowed to attach overnight in an incubator at 37° C. The cells were then washed twice with HBSS-HEPES buffer (Hanks' balanced salt solution without bicarbonate and phenol red, 20 mM HEPES, pH 7.4) using an ELx405 Select CW Microplate Washer (BioTek, Winooski, Vt., USA). After 60 min of dye-loading in the dark using the Ca^2+-sensitive dye Fluo-4AM (Invitrogen, Carlsbad, Calif., USA), at a final concentration of 2×10^−6M, the plates were washed 4 times with HBSS-HEPES buffer to remove excess dye and leaving 50 μl of buffer in each well. The plates were then placed in the FLIPR TETRA instrument and allowed to equilibrate at 37° C. AGN-211377 was added in a 25 μl volume to each well to give final concentrations of 0.1 μM, 0.3 μM, 1 μM, 3 μM, 10 μM, and 30 μM; or 0.067 μM, 0.1 μM, 0.2 μM, 0.3 μM, 0.67 μM, and 1 μM for cells over-expressing TP receptors. After 4.5 minutes, a 7-point serial dilution of the standard agonist for the corresponding receptor, in a 25 μl volume was injected at the final concentrations from 10^−11M to 10^−5M in 10-fold serial dilution increments for cells expressing human recombinant DP1, EP1, EP2, EP3, EP4, FP, and IP receptors. The dose range for the standard agonist for human recombinant TP receptors was from 10^−12 M to 10^−6 M. HBSS-HEPES buffer was used as the negative control for the standard agonists. Cells were excited with LED (light emitting diode) excitation at 470-495 nm and emission was measured through an emission filter at 515-575 nm. Assay plates were read for 3.5 minutes using the FLIPR^TETRA. The peak increase in fluorescence intensity was recorded for each well. On each plate, negative controls, dose response of positive controls, and co-treatments of antagonist-agonist for each dose were in triplicates.
Standard agonists were as follows: DP=BW 245C, EP1-EP4=PGE2, FP=17-phenyl-PGF2α, IP=Cicaprost, and TP=U-46619. […]

[5] = target: T5, human prostanoid EP4 receptor (Homo sapiens, UniProt P35408); experiment: FLIPR Ca2+ signaling antagonist assay, EP4 receptor stable cell line; details: HEK-293 EBNA stable cell line; standard agonist PGE2; NA = inactive (no antagonism or Kb 10,000 nM); PAg, Ag not defined
T5 construct: expressed in transfected cells
Method in brief: as §1

[6] = target: T6, human prostanoid IP receptor (Homo sapiens, UniProt P43119); experiment: FLIPR Ca2+ signaling antagonist assay, IP receptor stable cell line; details: HEK-293 EBNA stable cell line; standard agonist Cicaprost; NA = inactive (no antagonism or Kb 10,000 nM); PAg, Ag not defined
T6 construct: expressed in transfected cells
Method in brief: as §2

[7] = target: T7, human prostanoid TP receptor (Homo sapiens, UniProt P21731); experiment: FLIPR Ca2+ signaling antagonist assay, TP receptor stable cell line; details: HEK-293 EBNA stable cell line; standard agonist U-46619; NA = inactive (no antagonism or Kb 10,000 nM); PAg, Ag not defined
T7 construct: expressed in transfected cells
T7 sequence (P21731 1-343): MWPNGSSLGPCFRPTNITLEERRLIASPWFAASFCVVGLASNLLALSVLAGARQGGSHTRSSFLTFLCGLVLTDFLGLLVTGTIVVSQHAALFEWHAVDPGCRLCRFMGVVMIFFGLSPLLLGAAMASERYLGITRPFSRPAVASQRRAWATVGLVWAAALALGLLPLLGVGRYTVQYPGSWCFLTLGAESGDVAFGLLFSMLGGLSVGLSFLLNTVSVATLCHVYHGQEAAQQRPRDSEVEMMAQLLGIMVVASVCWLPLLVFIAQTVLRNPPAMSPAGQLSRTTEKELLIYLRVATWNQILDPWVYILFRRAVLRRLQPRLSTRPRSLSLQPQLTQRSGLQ
Method in brief: as §2

T5 sequence (P35408 whole entry): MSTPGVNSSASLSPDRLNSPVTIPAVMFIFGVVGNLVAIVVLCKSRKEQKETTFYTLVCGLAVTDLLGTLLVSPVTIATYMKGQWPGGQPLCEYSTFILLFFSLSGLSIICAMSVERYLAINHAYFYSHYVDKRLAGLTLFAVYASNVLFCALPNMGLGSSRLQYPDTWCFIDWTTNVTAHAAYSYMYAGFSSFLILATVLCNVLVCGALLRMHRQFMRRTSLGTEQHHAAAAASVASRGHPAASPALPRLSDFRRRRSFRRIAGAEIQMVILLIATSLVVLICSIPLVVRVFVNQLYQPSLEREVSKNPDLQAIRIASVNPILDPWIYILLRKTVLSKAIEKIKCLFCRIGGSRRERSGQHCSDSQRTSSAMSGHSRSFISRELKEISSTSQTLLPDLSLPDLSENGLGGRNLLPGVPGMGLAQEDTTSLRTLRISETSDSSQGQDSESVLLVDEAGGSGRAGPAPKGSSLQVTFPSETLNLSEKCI
T1 sequence (P43088 whole entry): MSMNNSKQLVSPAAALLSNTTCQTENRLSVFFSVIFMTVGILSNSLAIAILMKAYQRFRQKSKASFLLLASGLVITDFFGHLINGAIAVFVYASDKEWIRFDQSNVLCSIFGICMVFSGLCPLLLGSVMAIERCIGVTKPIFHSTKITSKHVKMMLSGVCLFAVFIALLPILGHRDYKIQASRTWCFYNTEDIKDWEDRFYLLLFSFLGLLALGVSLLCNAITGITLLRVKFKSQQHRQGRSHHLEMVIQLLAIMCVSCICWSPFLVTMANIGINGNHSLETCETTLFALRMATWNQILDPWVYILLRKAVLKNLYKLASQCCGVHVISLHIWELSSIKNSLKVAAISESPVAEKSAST
T6 sequence (P43119 whole entry): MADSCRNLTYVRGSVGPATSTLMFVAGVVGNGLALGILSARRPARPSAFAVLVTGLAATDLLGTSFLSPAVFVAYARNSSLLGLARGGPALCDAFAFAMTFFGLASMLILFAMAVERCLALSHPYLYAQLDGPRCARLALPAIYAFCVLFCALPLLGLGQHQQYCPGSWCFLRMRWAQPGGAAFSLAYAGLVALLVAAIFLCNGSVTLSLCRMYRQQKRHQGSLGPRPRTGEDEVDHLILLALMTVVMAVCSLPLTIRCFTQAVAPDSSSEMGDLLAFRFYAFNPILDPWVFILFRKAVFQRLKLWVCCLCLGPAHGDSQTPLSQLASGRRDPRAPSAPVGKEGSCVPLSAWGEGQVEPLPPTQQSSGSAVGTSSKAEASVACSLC
T4 sequence (P43116 whole entry): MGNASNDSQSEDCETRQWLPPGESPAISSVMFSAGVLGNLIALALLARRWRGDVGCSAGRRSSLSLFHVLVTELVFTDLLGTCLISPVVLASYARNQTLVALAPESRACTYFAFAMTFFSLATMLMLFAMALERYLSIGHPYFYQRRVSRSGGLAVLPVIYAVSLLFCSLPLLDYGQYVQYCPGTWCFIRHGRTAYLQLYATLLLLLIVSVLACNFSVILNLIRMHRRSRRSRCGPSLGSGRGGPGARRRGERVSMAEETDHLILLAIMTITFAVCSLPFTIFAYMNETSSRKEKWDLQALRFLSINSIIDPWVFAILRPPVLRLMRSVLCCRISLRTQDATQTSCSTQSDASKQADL

## Cc1cc(CCC(=O)O)nn1Cc1cc(Br)ccc1OCC1CCC1 [Example 12, 3-[1-(5-Bromo-2-(2-cyclobutylmethoxy)-benzyl)-5-methyl-1H-pyrazol-3-yl]-propionic acid]
[1]
  Kb: 30 nM
[2]
  Kb: 110 nM
[3]
  Kb: 30 nM
[4]
  Kb: 1700 nM
[5]
  Kb: 500 nM
[6]
  Kb: 3600 nM
[7]
  Kb: 30 nM

## Cc1cc(CCC(=O)O)nn1Cc1cc(Cl)ccc1OCCC(C)C [Example 21, 3-[1-(5-Chloro-2-(3-methylbutoxy)benzyl)-5-methyl-1H-pyrazol-3-yl]-propionic acid]
[1]
  Kb: 225 nM
[2]
  DP1 (FLIPR) Kb: PAg
[3]
  Kb: 350 nM
[4]
  Kb: 8200 nM
[5]
  Kb: 1000 nM
[6]
  Kb: 5530 nM
[7]
  Kb: 30 nM

## COc1ccc(COc2ccc(Cl)cc2Cn2nc(CCC(=O)O)cc2C)cc1 [Example 31, 3-[1-(5-Chloro-2-(4-methoxybenzyloxy)benzyl)-5-methyl-1H-pyrazol-3-yl]-propionic acid]
[1]
  Kb: 200 nM
[2]
  Kb: 300 nM
[3]
  Kb: 300 nM
[4]
  Kb: 2500 nM
[5]
  Kb: 7400 nM
[6]
  Kb: 1200 nM
[7]
  Kb: 9 nM

## Cc1cc(CCC(=O)O)nn1Cc1cc(Cl)ccc1OCCCCC(C)C [Example 36, 3-[1-(5-Chloro-2-(5-methylhexyloxy)benzyl)-5-methyl-1H-pyrazol-3-yl]-propionic acid]
[1]
  Kb: 170 nM
[2]
  DP1 (FLIPR) Kb: PAg
[3]
  EP1 (FLIPR) Kb: Ag
[4]
  EP2 (FLIPR) Kb: PAg
[5]
  EP4 (FLIPR) Kb: Ag
[6]
  IP (FLIPR) Kb: Ag
[7]
  TP (FLIPR) Kb: Ag

## Cc1cc(CCC(=O)O)nn1Cc1cc(Cl)ccc1OCCC1CCCC1 [Example 39, 3-[1-(5-Chloro-2-(2-cyclopentylethoxy)benzyl)-5-methyl-1H-pyrazol-3-yl]-propionic acid]
[1]
  Kb: 300 nM
[2]
  DP1 (FLIPR) Kb: PAg
[3]
  EP1 (FLIPR) Kb: PAg
[4]
  EP2 (FLIPR) Kb: PAg
[5]
  EP4 (FLIPR) Kb: PAg
[6]
  IP (FLIPR) Kb: PAg
[7]
  TP (FLIPR) Kb: PAg

## Cc1cc(CCCCC(=O)O)nn1Cc1cc(Cl)ccc1OCC1CCCC1 [Example 41, 5-[1-(5-Chloro-2-cyclopentylmethoxybenzyl)-5-methyl-1H-pyrazol-3-yl]-pentanoic acid]
[1]
  Kb: 200 nM
[2]
  DP1 (FLIPR) Kb: PAg
[3]
  Kb: 350 nM
[4]
  Kb: 8200 nM
[5]
  Kb: 1000 nM
[6]
  Kb: 5500 nM
[7]
  Kb: 30 nM

## CCC(CC)COc1ccc(OC(F)(F)F)cc1Cn1nc(CCC(=O)O)cc1C [Example 48, 3-[1-[2-(2-Ethyl-butoxy)-5-trifluoromethoxy-benzyl]-5-methyl-1H-pyrazol-3-yl]-propionic acid]
[1]
  Kb: 150 nM
[2]
  DP1 (FLIPR) Kb: PAg
[3]
  Kb: 80 nM
[4]
  Kb: 3000 nM
[5]
  Kb: 400 nM
[6]
  Kb: 2300 nM
[7]
  Kb: 40 nM

From patent publication US9394284B2, “Compounds act at multiple prostaglandin receptors giving a general anti-inflammatory response” (Allergan, Inc., priority 2010, dated 2016)
